Like-named read-outs stand apart in the source and are kept apart here. Peptide text beside a SMILES is read from it.
Experiment: Solubility of sweetening agents in medium-chain triglycerides (MCT)
Description: 18 mg of neotame, 20 mg of saccharin, 1 mg of sodium saccharin or 5 mg of thaumatin was mixed with medium-chain triglycerides (MCT; USP/NF) to give the total weight of 180 g, 20 g, 100 g or 500 g respectively.
Solubility and sensory tests of sweetening agents were conducted. Specifically, 7.2 mg of neotame, 20 mg of saccharin or 5 mg of sucralose was mixed with medium-chain triglycerides (MCT; USP/NF) to give the total weight of 40 g, 20 g or 100 g, respectively. Additionally, 1 mg of a sweetening agent was mixed with medium-chain triglycerides (MCT; USP/NF) to give the total weight of its mixtures of 100 g. The sweetening agent was sodium saccharin, thaumatin, aspartame, acesulfame potassium, sucrose, glucose, fructose, lactose, D-sorbitol, or xylitol.

[1] = Example 5, medium-chain triglycerides (USP/NF)

| Compound | Solubility in MCT [w/w %] | Solubility in MCT, in words | further results |
| --- | --- | --- | --- |
| OC[C@H]1O[C@@](CO)(O[C@H]2O[C@H](CO)[C@@H](O)[C@H](O)[C@H]2O)[C@@H](O)[C@@H]1O [Sucrose, sucrose] | <0.001 |  |  |
| OC[C@@H](O)[C@@H](O)[C@H](O)[C@@H](O)CO [D-Sorbitol, D-sorbitol] | <0.001 |  |  |
| OC[C@H]1O[C@H](O[C@]2(CCl)O[C@H](CCl)[C@@H](O)[C@@H]2O)[C@H](O)[C@@H](O)[C@H]1Cl [Sucralose, 1,6-Dichloro-1,6-dideoxy-β-D-fructofuranosyl-4-chloro-4-deoxy-α-D-galactopyranoside] | 0.005 | solved in MCT |  |
| OC[C@@H](O)[C@H](O)[C@@H](O)CO [Xylitol, xylitol] | <0.001 |  |  |
| O=C1NS(=O)(=O)c2ccccc21.[Na] [Sodium saccharin, sodium saccharin] |  |  | Solubility to MCT (Example 1, medium-chain triglycerides (USP/NF)): <0.001%; Solubility in MCT [1]: <0.001 w/w %; Solubility in MCT, in words (Examples 1 and 5): did not solve in MCT |
| COC(=O)[C@H](Cc1ccccc1)NC(=O)[C@H](CC(=O)O)NCCC(C)(C)C [Neotame] | 0.018 | solved in MCT | Solubility to MCT: 0.01% |
| thaumatin | <0.001 | did not solve in MCT | Solubility to MCT: <0.001% |
| COC(=O)[C@H](Cc1ccccc1)NC(=O)[C@@H](N)CC(=O)O [Aspartame, aspartame] (H-Asp-Phe-OMe) | <0.001 |  |  |
| O=C(CO)[C@@H](O)[C@H](O)[C@H](O)CO [Fructose, fructose] |  |  | Solubility in MCT [1]: <0.001 w/w % |

Now from value to compound, other results behind:

| Solubility in MCT [w/w %] | Solubility in MCT, in words | Compound | further results |
| --- | --- | --- | --- |
| <0.001 |  | CC1=CC(=O)NS(=O)(=O)O1 [Acesulfame potassium, acesulfame potassium] |  |
| 0.1 | solved in MCT | O=C1NS(=O)(=O)c2ccccc21 [Saccharin, 2H-1λ^6,2-benzothiazol-1,1,3-trione] | Solubility to MCT: 0.1% |

— patent publication US20170020890A1, “PHARMACEUTICAL COMPOSITION COMPRISING FATTY ACID DERIVATIVE” (SUCAMPO AG, priority 2015, published 2017)
